Patent US20150315211A1, “SMALL MOLECULES FOR THE MODULATION OF MCL-1 AND METHODS OF MODULATING CELL DEATH, CELL DIVISION, CELL DIFFERENTIATION AND METHODS OF TREATING DISORDERS” (priority 2010, published 2015)

Experiments:
[1] = molecular target: BCL-XLΔC (Homo sapiens, UniProt Q07817); assay: High-throughput competitive FP binding screen, FITC-BAD BH3/BCL-XLΔC interaction; details: FITC-BAD BH3/BCL-XLΔC interaction pair, competitive FP screen
[2] = tested on: MCL-1ΔNΔC; assay: High-throughput competitive FP binding screen, FITC-MCL-1 SAHB/MCL-1ΔNΔC interaction; details: selectivity for MCL-1ΔNΔC over BCL-XLΔC targeting (BCL-XL % Bound minus MCL-1 % Bound)
[3] = molecular target: MCL-1ΔNΔC (Homo sapiens, UniProt Q07820); assay: as above; set-up: the C-terminal alpha-helix was deleted from each of these constructs; GST (N, cleaved yes); made in house; details: FITC-MCL-1 SAHB/MCL-1ΔNΔC interaction pair, competitive FP screen
MCL-1ΔNΔC (Homo sapiens, UniProt Q07820), sequence (Q07820 172-320 limits assumed, stated change not applied): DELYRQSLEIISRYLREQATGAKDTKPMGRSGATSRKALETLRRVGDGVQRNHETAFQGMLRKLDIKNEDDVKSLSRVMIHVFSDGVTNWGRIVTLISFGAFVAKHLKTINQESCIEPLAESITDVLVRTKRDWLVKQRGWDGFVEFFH

BCL-XLΔC, sequence (Q07817 1-212 limits assumed, stated change not applied): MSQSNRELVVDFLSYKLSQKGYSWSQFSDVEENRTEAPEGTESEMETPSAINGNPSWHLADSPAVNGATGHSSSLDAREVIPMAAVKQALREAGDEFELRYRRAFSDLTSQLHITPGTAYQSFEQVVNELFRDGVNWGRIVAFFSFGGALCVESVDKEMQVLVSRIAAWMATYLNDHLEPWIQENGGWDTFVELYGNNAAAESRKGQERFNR

| Compound | BCL-XL % Bound [1] | Spec Values [2] | MCL-1% Bound [3] |
| --- | --- | --- | --- |
| CCOc1ccc(S(=O)(=O)NC2C=C(Sc3nc[nH]n3)C(=O)c3ccccc32)cc1 (stereo not drawn) | 103.4% | 101.1 | 2.333% |
| O=C1C(Sc2nc[nH]n2)=CC(NS(=O)(=O)c2ccc(F)cc2)c2ccccc21 (stereo not drawn) | 96.12% | 91.16 | 4.952% |
| O=S(=O)(Nc1ccc(O)c2ccccc12)c1ccccc1 | 96.39% | 76.72 | 19.67% |
| O=C1C(Sc2nc[nH]n2)=C/C(=N/S(=O)(=O)c2cccs2)c2ccccc21 | 93.16% | 73.41 | 19.75% |
| CC(C)(C)c1cc(Cc2ccc(O)c(O)c2)cc(C(C)(C)C)c1O | 96.57% | 108.1 | −11.56% |
| Oc1c(C(c2cccs2)N2CCCCC2)ccc2cccnc12 (stereo not drawn) | 115.2% | 105.7 | 9.463% |
| CC1(C)CC2CC(C)(CN2c2nc(N)c3c(N)nc4c(c3c2C#N)CC(=O)N4C2CCCC2)C1 (stereo not drawn) | 114.7% | 104 | 10.72% |
| CCOc1ccc(S(=O)(=O)/N=C2/C=C(Sc3nc[nH]n3)C(=O)c3ccccc32)cc1 | 103.4% | 101.1 | 2.333% |
| O=C1NC(=S)N/C1=C1/C(=O)Nc2ccccc21 | 112.9% | 98.82 | 14.04% |
| Oc1ccc(/C=N/NC(=S)Nc2ccc(Cl)cc2Cl)c(O)c1O | 87.36% | 98.23 | −10.87% |
| COc1cc(OC)c(C2=NOC(C(=O)Nc3cc(C)n(CC(=O)NCc4ccco4)n3)C2)cc1Cl (stereo not drawn) | 83.62% | 98.12 | −14.5% |
| CCOC(=O)/C(C#N)=C\c1ccc(N2CCOCC2)cc1 | 78.1% | 96.6 | −18.5% |
| Cc1ccc(C2=NC(=O)/C(=C/c3cc(O)c(O)c(Br)c3)S2)cc1 | 96.59% | 93.98 | 2.607% |
| O=C1C(Sc2nc[nH]n2)=C/C(=N/S(=O)(=O)c2ccc(F)cc2)c2ccccc21 | 96.12% | 91.16 | 4.952% |
| NC(=O)c1c(Nc2nc3c(F)cccc3s2)sc2c1CCCC2 | 103.9% | 89.1 | 14.83% |
| O=C(c1ccccc1)c1ccc2nc(-c3ccco3)c(-c3ccco3)nc2c1 | 101.3% | 86.7 | 14.6% |
| CC(C)(C)c1cc(O)c2oc(=O)c(-c3nc(-c4ccccc4F)no3)cc2c1 | 71.1% | 84.11 | −13.01% |
| C/N=c1\scc(-c2c[nH]c3ccccc23)n1C | 114.1% | 83.96 | 30.17% |
| Cc1ccc(NC(=O)COc2ncnc3c2cnn3-c2ccccc2)cc1 | 99.91% | 83.71 | 16.2% |
| O=S(=O)(Nc1ccc(Oc2ccc(Cl)cc2C2CCCCC2)nc1)c1cccc2nonc12 | 103.4% | 82.7 | 20.72% |
| CC(C)c1ccc(C2=CC(=O)C=CC2=O)cc1 | 89.1% | 82.58 | 6.516% |
| CCc1cccc(NC(=O)/C=C/c2ccco2)c1 | 80.4% | 81.13 | −0.7334% |
| Cc1occc1-c1nnc2n1N=C(c1ccc(-c3cc(Cl)ccc3Cl)o1)CS2 | 104% | 81.03 | 22.98% |
| Cc1cc(C)c2nc(N3CCCN(C(=O)c4ccco4)CC3)c(C#N)cc2c1 | 92.2% | 80.8 | 11.4% |

| Compound | BCL-XL % Bound [1] | Spec Values [2] | MCL-1% Bound [3] |
| --- | --- | --- | --- |
| Cc1ccc(C)n1-c1cc(Cl)ccc1C(=O)O | 75.93% | 79.84 | −3.914% |
| O=C(OCc1ccc(F)cc1)c1cc(-c2ccco2)nc2ccccc12 | 101.6% | 79.65 | 21.94% |
| Cc1ccc(NC(=S)Nc2ccc3nc(-c4ccco4)c(-c4ccco4)nc3c2)cc1 | 75.97% | 78.01 | −2.047% |
| Oc1ccc2cc3c4cc(Br)ccc4nc-3oc2c1O | 90.07% | 76.69 | 13.37% |
| O=C1/C(=C\C=C\c2ccco2)SC(=S)N1NCc1ccccc1O | 95.8% | 76.1 | 19.8% |
| COC(=O)/C=C1/OC(c2ccc(Cl)cc2)=CC1=O | 97.17% | 75.38 | 21.79% |
| O=C1CSCC(=O)N1c1csc(C(F)(F)F)c1-c1ccccc1 | 96.35% | 74.8 | 21.55% |
| [Na+].[Na+].[O-]c1c(Cl)cc(Cl)cc1Sc1cc(Cl)cc(Cl)c1[O-] | 100.4% | 73.22 | 27.2% |
| CN1c2ccccc2C(C)(C)C12C=Cc1cc(O)ccc1O2 (stereo not drawn) | 111% | 73.1 | 37.92% |
| COC(=O)c1cc(OC(=O)c2ccccc2Br)n(C)n1 | 103.1% | 72.92 | 30.23% |
| O=c1oc2ccccc2c2oc3cc(O)c(O)cc3c12 | 84.9% | 72.31 | 12.59% |
| Oc1cccnc1NC(c1ccc(F)cc1)c1ccc2cccnc2c1O (stereo not drawn) | 113.7% | 71.24 | 42.49% |
| Cc1cc2c(n1-c1ccc(C(=O)O)cc1)CCCC2 | 65.33% | 71.18 | −5.85% |
| COc1ccc(C(=O)c2sc3cc(-c4ccco4)cc(C(F)(F)F)c3c2N)cc1OC | 85.27% | 70.97 | 14.29% |
| Cc1occc1-c1nnc2sc(Cc3cccc4ccccc34)nn12 | 129.5% | 70.8 | 58.7% |
| O=C(Nc1ccccc1)C(C(F)(F)F)C(F)(F)F | 82.61% | 70.63 | 11.98% |
| CC1CCN(C2=NN3C(=N)/C(=C\c4ccc(SCc5ccco5)o4)C(=O)N=C3S2)CC1 | 84.68% | 70.38 | 14.3% |
| CCCCn1nnnc1COC(=O)/C(C#N)=C/c1ccc(N(C)C)cc1 | 62.97% | 70.27 | −7.306% |
| O=C1NC(=O)/C(=C/c2ccc(-c3ccc(S(=O)(=O)N4CCOCC4)cc3)o2)S1 | 107.9% | 69.33 | 38.57% |
| Cc1ccc2[nH]c3nc(=S)[nH]nc3c2c1 | 107.9% | 69.2 | 38.65% |
| CCOC(=O)c1cc(C#N)c(SCC(=O)c2cc3ccccc3oc2=O)[nH]c1=O | 100.2% | 68.9 | 31.28% |
| N#CC1=C(c2ccc(Cl)cc2)C2CSc3ccccc3C2NC1=O (stereo not drawn) | 87.67% | 68.29 | 19.37% |
| Cc1ccc2c(c1C)NC(C(=O)O)C1CC=CC21 (stereo not drawn) | 82.8% | 68.3 | 14.6% |
| CCN(CC)c1cc(C)c2cc(NC(=O)/C=C/c3ccco3)ccc2n1 | 79.88% | 68.15 | 11.73% |
